Laboratory results published in US20260376293A1, “METHODS FOR STUDYING GPR158 PHARMACOLOGY AND IDENTIFICATION OF ITS LIGANDS” (UNIVERSITY OF FLORIDA RESEARCH FOUNDATION, INCORPORATED, priority 2022, published 2026).
Where “and” joins values, the source holds several entries; their conditions need not be identical. Equal values may be shown once.

Target: T1, GPR158-RGS7/Gβ5 complex (Homo sapiens, UniProt Q5T848)
T1 construct: substituting amino acids to alanine in full-length GPR158; expressed in transfected cells; host or cells: HEK293FT
T1 sequence (Q5T848 24-1215): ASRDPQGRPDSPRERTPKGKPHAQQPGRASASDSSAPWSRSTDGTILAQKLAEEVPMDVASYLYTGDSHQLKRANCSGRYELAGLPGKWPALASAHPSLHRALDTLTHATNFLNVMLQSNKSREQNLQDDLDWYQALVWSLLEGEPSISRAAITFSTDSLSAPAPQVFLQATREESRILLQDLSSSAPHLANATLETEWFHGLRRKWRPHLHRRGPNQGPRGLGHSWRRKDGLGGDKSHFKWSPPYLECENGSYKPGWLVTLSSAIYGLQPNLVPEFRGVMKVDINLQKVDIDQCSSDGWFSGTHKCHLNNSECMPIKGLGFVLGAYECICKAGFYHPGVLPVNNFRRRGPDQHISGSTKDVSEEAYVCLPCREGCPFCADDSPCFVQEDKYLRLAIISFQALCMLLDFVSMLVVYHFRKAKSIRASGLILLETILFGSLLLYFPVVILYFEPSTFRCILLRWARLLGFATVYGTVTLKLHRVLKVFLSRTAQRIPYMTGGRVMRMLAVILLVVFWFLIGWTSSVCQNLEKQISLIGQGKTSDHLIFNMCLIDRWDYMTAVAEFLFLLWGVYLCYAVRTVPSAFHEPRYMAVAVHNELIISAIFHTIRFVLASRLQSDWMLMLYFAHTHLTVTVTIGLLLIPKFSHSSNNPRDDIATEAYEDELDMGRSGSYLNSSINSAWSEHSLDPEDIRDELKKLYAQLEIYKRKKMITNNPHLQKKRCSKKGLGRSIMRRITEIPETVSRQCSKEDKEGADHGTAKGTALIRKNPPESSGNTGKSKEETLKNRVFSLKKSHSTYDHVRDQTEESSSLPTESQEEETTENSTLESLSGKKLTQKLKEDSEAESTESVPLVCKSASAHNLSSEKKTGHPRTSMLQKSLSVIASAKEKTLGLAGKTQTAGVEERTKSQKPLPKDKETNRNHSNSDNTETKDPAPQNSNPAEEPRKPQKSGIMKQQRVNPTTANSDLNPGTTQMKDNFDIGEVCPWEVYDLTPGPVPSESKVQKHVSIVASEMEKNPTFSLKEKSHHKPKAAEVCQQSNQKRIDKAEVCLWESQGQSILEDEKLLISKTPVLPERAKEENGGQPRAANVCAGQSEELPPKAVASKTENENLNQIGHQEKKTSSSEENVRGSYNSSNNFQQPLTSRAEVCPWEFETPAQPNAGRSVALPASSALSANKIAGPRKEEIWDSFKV
T1 sequence (P49802 1-495 partner): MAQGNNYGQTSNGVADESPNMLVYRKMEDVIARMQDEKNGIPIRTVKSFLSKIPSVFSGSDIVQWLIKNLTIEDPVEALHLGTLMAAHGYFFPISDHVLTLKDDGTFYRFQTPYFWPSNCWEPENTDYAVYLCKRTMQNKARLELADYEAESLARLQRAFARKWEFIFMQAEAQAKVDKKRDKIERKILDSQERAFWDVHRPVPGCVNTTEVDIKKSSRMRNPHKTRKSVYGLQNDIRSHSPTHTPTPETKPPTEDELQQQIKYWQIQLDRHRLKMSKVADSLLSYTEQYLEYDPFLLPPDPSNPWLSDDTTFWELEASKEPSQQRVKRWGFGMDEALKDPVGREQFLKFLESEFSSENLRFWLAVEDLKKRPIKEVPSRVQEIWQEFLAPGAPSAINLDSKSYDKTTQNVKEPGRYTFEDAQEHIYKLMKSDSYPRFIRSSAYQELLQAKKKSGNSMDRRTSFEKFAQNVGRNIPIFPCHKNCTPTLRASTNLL
T1 sequence (O14775 1-395 partner): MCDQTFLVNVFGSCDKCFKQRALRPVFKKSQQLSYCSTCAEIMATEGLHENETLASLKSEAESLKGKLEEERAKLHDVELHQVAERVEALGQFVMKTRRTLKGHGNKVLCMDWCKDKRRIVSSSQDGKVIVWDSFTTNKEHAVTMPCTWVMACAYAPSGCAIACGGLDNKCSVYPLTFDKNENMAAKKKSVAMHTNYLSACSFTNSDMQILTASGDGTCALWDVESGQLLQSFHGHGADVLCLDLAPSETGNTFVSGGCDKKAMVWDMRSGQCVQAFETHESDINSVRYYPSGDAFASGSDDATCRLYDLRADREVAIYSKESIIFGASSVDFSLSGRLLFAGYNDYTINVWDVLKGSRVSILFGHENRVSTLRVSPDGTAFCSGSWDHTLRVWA
Test: BRET GAP assay, Gαo deactivation (KGAP)
Format: cell-based
Conditions: for IC50: GPR158/RGS7/Gβ5, Gαo, D2R, n=4 in triplicate, mean±s.e.m., read-out: IC50 (change in GAP activity, KGAP)
Procedure: FIGS. 3A-3D. Effect of taurine on Gαo deactivation mediated by GPR158-RGS7/Gβ5 complex. A and B) Representative traces of BRET signal showing Gαo activation mediated by D2R upon application of dopamine (100 μM) at t=0 s and Gαo deactivation triggered by injection of haloperidol (100 μM) at t=15 s (arrow). Time courses were examined without or with taurine (100 μM) incubation in mock transfected cells or cells transfected with GPR158. C) Quantification of deactivation time constant of the reactions presented in 3A and 3B. 1/τ is calculated from deactivation curves of 5 independent experiments each performed in triplicate for each transfection condition. Data shown represent mean±s.e.m. ****p<0.0001, ns=p>0.05 (two-way ANOVA). Columns with no fill (Mock), columns with dotted fill (Taurine) D) Dose response profile of changes in GAP activity (KGAP) calculated by subtracting the baseline deactivation rate (1/τ) from the rate of the reaction in the presence of the GPR158/RGS7/Gβ5. […] Data shown represent mean±s.e.m of 4 independent experiments each conduced in triplicate.
FIGS. 4A-4E. Glycine slows deactivation of Gαo by GPR158-RGS7/Gβ5 complex A) Schematics of the BRET-based GAP assay. G proteins are activated at t=0 s by stimulating GPCR (D2R, 0.1 mM). After reaching steady state the GPCR activity is terminated by injection of haloperidol (0.1 mM) at t=15 s (arrow). G protein deactivation is then monitored by dissociation of the Venus-Gβγ from masGRK3ct-Nluc reporter which occurs upon GTP hydrolysis by Gαo quenching the BRET signal. B and C) Representative traces of BRET signal showing Gαo activation and deactivation time course with or without glycine (100 μM) treatment in cells without GPR158 (b) or cells transfected with GPR158 (c). D) Quantification of deactivation time constant of the reactions presented in panels b and c. 1/τ is calculated from deactivation curves of n=5 independent experiments in triplicate from each cell transfection group. Data shown represent mean±s.e.m. ****p<0.0001, ns, p>0.05 (two-way ANOVA). Columns with no fill (Mock), columns with dotted fill (Glycine), columns with angled-line fill (Taurine) E) Dose response profile of changes in GAP activity (KGAP) calculated by subtracting the baseline deactivation rate (1/τ) from the rate of the reaction in the presence of the GPR158/RGS7/Gβ5. […] Data shown represent mean±s.e.m of n=4 independent experiments each conduced in triplicate.
To understand how glycine action on GPR158 regulates intracellular cAMP the inventors focused on GPR158 interaction with RGS7/Gβ5, an established GTPase Activating Protein (GAP) for the Gαi/o proteins (38) known to regulate cAMP production (39). The inventors used a well-established cell-based assay to monitor GAP activity by following kinetics of G protein deactivation (40) (FIG. 4A). In this assay, activation of G proteins by GDP/GTP exchange in response to GPCR stimulation generates the BRET signal upon interaction of liberated Venus-Gβγ subunits with the masGRK3CT-Nluc reporter.
Cellular measurements of BRET between Venus-Gβ1γ2 and masGRK3ct-Nluc were performed to examine GAP activity of RGS protein in living cells (described in detail in Masuho et al., 2015 (40)). Cells were co-transfected with the pcDNA3.1(+) plasmid coding for dopamine D2 receptor (1), GαoA (2), masGRK3ct-Nluc (1), Venus-156-239-Gβ1 (1), Venus-1-155-Gγ2 (1), and when indicated with RGS7/Gβ5 (2), GPR158 (1) (in parenthesis the ratio of transfected DNA). […]

SMILES	IC50	effect on Gαo deactivation (GPR158 co-expressed with RGS7/Gβ5, 100 μM)	effect on Gαo deactivation without GPR158 (baseline or RGS7/Gβ5 without GPR158, glycine 100 μM)	potency of taurine as compared to glycine (GAP assay IC50 comparison)
NCC(=O)O [glycine]	~3 µM and 2.93 µM	significantly decelerated Gαo deactivation	no effect on either baseline Gαo deactivation or RGS7/Gβ5-assisted process	
NCCS(=O)(=O)O [taurine, 2-aminoethanesulfonic acid]	~6 µM and 5.89 µM			approximately two-fold lower potency
